Data as given in the supplement of paper PMC10307832.

compound: Cc1ccc2nc(NCCN)c3ncc(C)n3c2c1 + O=C(CCCCCCC(=O)Nc1ccccc1)NO [Vorinostat] (partner 1 µM); assay: relative viability (nuclei count vs DMSO), 5 days (fraction); higher = more cells survive; conditions: first compound 0.04 µM
In short: (§1)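 Dosing by pin tool came one day after lung cancer cell lines were seeded in 1536-well plates, using either one drug or a fixed anchor-drug dose plus five library-drug doses (not always all listed) in √10 steps. After 5 days, nuclei were counted on 4× images. Relative viability is treated-well nuclei count divided by vehicle-well nuclei count, and values are medians of duplicate plates.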

Cell Line	relative viability
NCI-H1650	0.709
NCI-H1993	0.797
SW 1573	0.85
NCI-H838	0.8
LCLC-103H	0.859
NCI-H520	0.719
NCI-H2126	0.931
EMC-BAC-2	0.467
NCI-H2085	0.816
HCC-366	0.421
NCI-H1666	1.06
NCI-H596	0.674
LK-2	0.384
NCI-H2087	0.435
NCI-H358	0.74
NCI-H2170	1.01
H3255	0.831
COR-L23	0.511
COR-L 105	0.658
IA-LM	0.92
LOU-NH91	1.02
ChaGo-K-1	0.751
NCI-H1793	0.825
NCI-H2405	1.2
HOP-62	0.647
HCC-44	0.981
SK-MES-1	1.19
LU99A	0.532
HCC-78	0.502
NCI-H1648	0.337

same assay, conditions: first compound 0.1265 µM

Cell Line	relative viability
NCI-H522	0.971
NCI-H2342	0.689
NCI-H1650	0.466
NCI-H1993	0.776
SW 1573	0.903
NCI-H838	0.685
LCLC-103H	0.821
NCI-H520	0.725
NCI-H2126	0.821
EMC-BAC-2	0.433
NCI-H2085	0.784
HCC-366	0.359
NCI-H1666	1.05
NCI-H596	0.714
LK-2	0.409
NCI-H2087	0.657

Cell Line	relative viability
NCI-H358	0.617
NCI-H2170	1.01
H3255	0.832
COR-L23	0.46
COR-L 105	1.13
IA-LM	0.917
LOU-NH91	0.902
ChaGo-K-1	0.832
NCI-H1793	0.792
NCI-H2405	0.943
HOP-62	0.752
HCC-44	1.05
SK-MES-1	1.13
LU99A	0.512
HCC-78	0.426
NCI-H1648	0.458

same assay, conditions: first compound 0.4 µM

Cell Line	relative viability
NCI-H522	0.677
NCI-H2342	0.701
NCI-H727	1.13
NCI-H1650	0.509
NCI-H1993	0.727
SW 1573	0.669
NCI-H838	0.685
LCLC-103H	0.686
NCI-H520	0.808
NCI-H2126	0.788
EMC-BAC-2	0.455
NCI-H2085	0.77
HCC-366	0.244
NCI-H1666	0.925
NCI-H596	0.609
LK-2	0.302

Cell Line	relative viability
NCI-H2087	0.611
NCI-H358	0.66
NCI-H2170	0.786
H3255	0.629
COR-L23	0.417
COR-L 105	0.845
LOU-NH91	0.87
ChaGo-K-1	0.771
NCI-H1793	0.815
NCI-H2405	0.946
HOP-62	0.401
HCC-44	1.09
SK-MES-1	1.03
LU99A	0.423
HCC-78	0.402
NCI-H1648	0.362

same assay, conditions: first compound 1.265 µM

Cell Line	relative viability
NCI-H522	0.92
NCI-H2342	0.784
NCI-H727	1.18
NCI-H1650	0.469
NCI-H1993	0.856
SW 1573	0.865
NCI-H838	0.708
LCLC-103H	0.697
NCI-H520	0.674
NCI-H2126	0.835
EMC-BAC-2	0.527
NCI-H2085	0.857
HCC-366	0.361
NCI-H1666	0.944
NCI-H596	0.668
LK-2	0.315
NCI-H2087	0.884

Cell Line	relative viability
NCI-H358	0.629
NCI-H2170	0.702
H3255	0.706
COR-L23	0.374
COR-L 105	0.911
IA-LM	1.06
LOU-NH91	0.931
ChaGo-K-1	0.657
NCI-H1793	0.642
NCI-H2405	1.01
HOP-62	0.602
HCC-44	1.08
SK-MES-1	1.13
LU99A	0.494
HCC-78	0.383
NCI-H1648	0.4

same assay, conditions: first compound 4 µM

Cell Line	relative viability
NCI-H522	1.09
NCI-H2342	0.704
NCI-H727	1.04
NCI-H1650	0.478
NCI-H1993	0.649
SW 1573	0.65
NCI-H838	0.61
LCLC-103H	0.751
NCI-H520	0.574
NCI-H2126	0.755
EMC-BAC-2	0.392
NCI-H2085	0.808
HCC-366	0.296
NCI-H1666	1.05
NCI-H596	0.588
LK-2	0.322
NCI-H2087	0.675

Cell Line	relative viability
NCI-H358	0.564
NCI-H2170	0.833
H3255	0.653
COR-L23	0.375
COR-L 105	0.768
IA-LM	0.981
LOU-NH91	0.858
ChaGo-K-1	0.766
NCI-H1793	0.679
NCI-H2405	0.93
HOP-62	0.663
HCC-44	1.11
SK-MES-1	1.03
LU99A	0.476
HCC-78	0.436
NCI-H1648	0.317

compound: O=C(/C=C/c1ccccc1)NC(NC(=S)Nc1cccc2cccnc12)C(Cl)(Cl)Cl [Salubrinal] + Cc1cc(Nc2cc(N3CCN(C)CC3)nc(Sc3ccc(NC(=O)C4CC4)cc3)n2)n[nH]1 [Tozasertib] (partner 0.1 µM); assay: as above; conditions: first compound 0.08 µM
In short: as §1

Cell Line	relative viability
NCI-H522	0.566
NCI-H2342	0.457
